For 37 molecules, TGI and GI50 results are on record in PubChem BioAssay (NCI).

Converted amounts (≈) assume the structure as drawn.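 Results reflect a 48-hour exposure of cells in 96-well plates to compound at five concentrations. Abbreviation: GI50, concentration required for 50% inhibition of growth. TGI is the concentration that stops growth completely.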

Among the test systems are MDA-N; SNB-78 CNS; DMS 273 small cell lung; RXF-631 renal; DLD-1 colon; LXFL 529 NSCLC; HOP-18 NSCLC.
Common to all, as to test: growth of human tumour cells (NCI), 48 h

`CC(=O)O[C@@H]1C[C@@]2(C)[C@@H]3CC=C4[C@@H](C[C@H](O)C(=O)C4(C)C)[C@]3(C)C(=O)C[C@]2(C)[C@H]1[C@@](C)(O)C(=O)/C=C/C(C)(C)OC(C)=O` came in with a TGI in the experiment with MDA-N of 14.8 µM.
For the molecule `N#CCN1C(=O)c2cc([N+](=O)[O-])cc3cc([N+](=O)[O-])cc(c23)C1=O`, the TGI in the experiment on SNB-78 CNS is above 58 µM; with DMS 273 small cell lung it was above 100 µM; with RXF-631 renal, above 60.6 µM; in the experiment with DLD-1 colon, 29.4 µM; in the experiment on LXFL 529 NSCLC it was above 50.6 µM; in the experiment on HOP-18 NSCLC it was above 100 µM.
On to `CC(=O)/C(=C\c1ccccc1O)C(=O)Nc1ccccc1C`, for which the TGI was 98.7 µM in the experiment with SNB-78 CNS, 79.1 µM with DLD-1 colon, 98.6 µM in the experiment on LXFL 529 NSCLC and above 100 µM with HOP-18 NSCLC.
`NC1=NC(=O)C(CC(=O)Nc2ccc(Cl)cc2Cl)S1` (configuration not stated): the TGI with SNB-78 CNS, in the experiment on DMS 273 small cell lung, in the experiment with DLD-1 colon and in the experiment on LXFL 529 NSCLC was above 100 µM each time.
Take `O=C1OC(=O)c2c1c(-c1ccccc1)nc1ccccc21`: the TGI with SNB-78 CNS, in the experiment on DMS 273 small cell lung, with RXF-631 renal, in the experiment with DLD-1 colon and in the experiment on LXFL 529 NSCLC was above 100 µM in each case.
As to `O=C(NCCNCCO)c1cccc2ccc(-c3ccccc3)nc12`, the TGI in the experiment on SNB-78 CNS is 29.1 µM; in the experiment on DMS 273 small cell lung it was 14.1 µM; in the experiment on RXF-631 renal, 12.1 µM; in the experiment on DLD-1 colon, 19.5 µM; with HOP-18 NSCLC, 45.8 µM.
For `O=Cc1ccc2c(c1I)OCO2`, the TGI in the experiment on SNB-78 CNS, in the experiment with DMS 273 small cell lung, with DLD-1 colon and in the experiment on HOP-18 NSCLC was above 100 µM throughout.
As to `ClC1=C(Cl)C(Cl)(Cl)c2c3c(c4c(c21)C(Cl)(Cl)C(Cl)=C4Cl)C(Cl)(Cl)C(Cl)=C3Cl`, the TGI in the experiment on DMS 273 small cell lung and with LXFL 529 NSCLC was above 100 µM throughout.
Take `COc1ccc(-c2cc(=O)c3c(O)cccc3o2)c(OC)c1OC`: the TGI in the experiment on SNB-78 CNS, in the experiment on DMS 273 small cell lung, in the experiment with RXF-631 renal, in the experiment on DLD-1 colon and in the experiment on LXFL 529 NSCLC was above 100 µM throughout.
Regarding `CC(C)(C)c1cc2nc(c1)C(C(F)(F)F)(C(F)(F)F)OB(Br)OC2(C(F)(F)F)C(F)(F)F`, the TGI turned out to be 1.56 µM with SNB-78 CNS; 0.107 µM with DMS 273 small cell lung; 5.35 µM in the experiment with RXF-631 renal; 12.8 µM in the experiment with DLD-1 colon; 13.9 µM with LXFL 529 NSCLC.
In the case of `O=C(O)CCNS(=O)(=O)c1ccc([N+](=O)[O-])cc1`, the TGI in the experiment with DMS 273 small cell lung, with RXF-631 renal, in the experiment on DLD-1 colon, in the experiment with LXFL 529 NSCLC and in the experiment on HOP-18 NSCLC was above 100 µM in each case.
As to `COc1cc(C2(C)SCCCS2)cc(OC)c1OC`, the TGI in the experiment on DMS 273 small cell lung, in the experiment with RXF-631 renal, in the experiment on DLD-1 colon, with LXFL 529 NSCLC and in the experiment with HOP-18 NSCLC was above 100 µM in each case.
As for `COC(=O)C(C(=O)C(=O)Nc1ccc([N+](=O)[O-])cc1)c1nc2ccc([N+](=O)[O-])cc2[nH]c1=O` (configuration not stated), the TGI in the experiment with SNB-78 CNS, with DMS 273 small cell lung, in the experiment on RXF-631 renal, in the experiment on DLD-1 colon, in the experiment on LXFL 529 NSCLC and in the experiment with HOP-18 NSCLC was above 100 µM each time.
For the molecule `Cc1cccc(NC(=O)/C(=N\N)C(c2cnc3ccc([N+](=O)[O-])cc3n2)[N+](=O)[O-])c1C` (configuration not stated), the TGI in the experiment on DMS 273 small cell lung, in the experiment with RXF-631 renal, with DLD-1 colon, in the experiment on LXFL 529 NSCLC and in the experiment on HOP-18 NSCLC was above 100 µM each time.
On to `Cc1cc2c(c(C(N)=O)c1C)-c1cc(Cl)cc(Cl)c1C2=O`, for which the TGI in the experiment with SNB-78 CNS, in the experiment with DMS 273 small cell lung, with DLD-1 colon, in the experiment with LXFL 529 NSCLC and in the experiment with HOP-18 NSCLC was above 100 µM in each case.
Turning to `Cc1ccccc1-n1c(N)c(-c2nc3ccccc3[nH]2)sc1=S`, the TGI is 74.8 µM in the experiment with SNB-78 CNS; 35 µM in the experiment on DMS 273 small cell lung; 49.1 µM in the experiment with RXF-631 renal; 64.6 µM in the experiment with DLD-1 colon; 50.4 µM with LXFL 529 NSCLC; 72.8 µM in the experiment with HOP-18 NSCLC.
For the molecule `CCOC(=O)C1Nc2ccccc2[C@H]2OCC[C@@H]12` (some centres not stated), the TGI in the experiment with SNB-78 CNS, in the experiment on DMS 273 small cell lung, in the experiment with DLD-1 colon and in the experiment with HOP-18 NSCLC was above 100 µM throughout.
Take `CCCC(S(=O)(=O)c1ccccc1)S(=O)(=O)c1ccccc1`: the TGI in the experiment on SNB-78 CNS, with DMS 273 small cell lung, with RXF-631 renal, in the experiment on DLD-1 colon and in the experiment on LXFL 529 NSCLC was above 100 µM in each case.
On to `O=C(/C=C/c1ccc(Cl)c(Cl)c1)c1cccc2ccccc12`, for which the TGI turned out to be 26.8 µM in the experiment with SNB-78 CNS; 14.7 µM with DMS 273 small cell lung; 33.1 µM in the experiment on RXF-631 renal; 11.4 µM in the experiment on DLD-1 colon; 6.64 µM in the experiment on LXFL 529 NSCLC; 31.1 µM with HOP-18 NSCLC.
Consider `CC1=C(CC2C(=O)N(c3ccccc3)S(=O)(=O)NC2C)C(=O)N(c2ccccc2)S(=O)(=O)N1C` (configuration not stated), for which the TGI with SNB-78 CNS, in the experiment on DMS 273 small cell lung, in the experiment with RXF-631 renal, in the experiment on DLD-1 colon and with LXFL 529 NSCLC was above 100 µM each time.
As for `COc1ccc(OC(=O)CC2Cc3cc(OC)c(OC)c(OC)c3-c3ccc(SC)c(=O)cc32)cc1` (configuration not stated), the TGI is above 100 µM with DMS 273 small cell lung, above 100 µM in the experiment on RXF-631 renal, above 34.6 µM in the experiment with DLD-1 colon and 11.3 µM in the experiment with LXFL 529 NSCLC.
As for `Oc1cc(-n2cccn2)c(O)cc1-n1cccn1`, the TGI in the experiment with SNB-78 CNS is above 68.7 µM; in the experiment with DMS 273 small cell lung it was above 58.2 µM; with RXF-631 renal, above 100 µM; with DLD-1 colon, above 94.8 µM; with MDA-N, 33.5 µM; in the experiment with LXFL 529 NSCLC it was 34.7 µM. For the same molecule, the TGI in the experiment on HOP-18 NSCLC is above 100 µM.
Take `CCOC(=O)/C(I)=C/c1cc(OC)c(OC)c(OC)c1`: the TGI in the experiment on SNB-78 CNS was above 100 µM; with DMS 273 small cell lung it was 22.7 µM; in the experiment on DLD-1 colon it was 35.2 µM; in the experiment on LXFL 529 NSCLC, 26.8 µM; with HOP-18 NSCLC, 24 µM.
The like results for `N[C@H](COCc1ccccc1)c1ccccc1` were, in that order, above 100 µM, 50 µM, above 100 µM, 51.5 µM and above 89.8 µM.
With `CC1=NN(c2ccccc2)C(=O)/C1=C\c1ccc([N+](=O)[O-])cc1`, the TGI is above 100 µM with SNB-78 CNS; 62.7 µM with DMS 273 small cell lung; 77.4 µM with RXF-631 renal; above 100 µM in the experiment on DLD-1 colon; above 100 µM with LXFL 529 NSCLC.
As for `CC1=C(C(=O)Nc2ccc(Cl)c(Cl)c2)C(c2ccc([N+](=O)[O-])cc2)C(C(=O)Nc2ccc(Cl)c(Cl)c2)=C(C)N1`, the TGI in the experiment with SNB-78 CNS was 26.7 µM; in the experiment with DMS 273 small cell lung, 9.14 µM; with RXF-631 renal, 6.69 µM; in the experiment on DLD-1 colon, above 41.7 µM; with LXFL 529 NSCLC, 11.8 µM; with HOP-18 NSCLC, 19.2 µM.
With `Nc1nc(N)c(CCCCc2ccccc2)c(N)n1`, the TGI in the experiment on DMS 273 small cell lung, in the experiment with DLD-1 colon, in the experiment with MDA-N and in the experiment with LXFL 529 NSCLC was above 100 µM each time.
For `Fc1cccc(F)c1C(Nc1nncs1)Nc1nncs1`, in the experiment with MDA-N, the TGI was above 100 µM.
Turning to `N#CC1(C#N)C(c2ccccc2)C=CC12OCCCO2` (configuration not stated), the TGI with SNB-78 CNS was above 100 µM; in the experiment on DMS 273 small cell lung, above 100 µM; in the experiment with RXF-631 renal, above 100 µM; with DLD-1 colon it was 95.4 µM; with LXFL 529 NSCLC, 95.2 µM; with HOP-18 NSCLC, above 100 µM.
Take `Cc1cc(C)c(C2CNCc3cc4c(cc32)CNCC4c2c(C)cc(C)cc2C)c(C)c1` (configuration not stated): in the experiment with MDA-N, the GI50 is 2.05 µg/mL (≈ 4.83 µM) and the TGI turned out to be 4.3 µg/mL.
Take `O=C(Cc1nc2ccccc2o1)C(=O)Nc1cccc(C(F)(F)F)c1`: the TGI with SNB-78 CNS, in the experiment on DMS 273 small cell lung, with RXF-631 renal, in the experiment on DLD-1 colon, with LXFL 529 NSCLC and with HOP-18 NSCLC was above 100 µM in each case.
Regarding `COc1ccc(-c2[nH]c3ccccc3c2CCNS(=O)(=O)c2ccc(C)cc2)cc1`, the TGI in the experiment on SNB-78 CNS, in the experiment with DMS 273 small cell lung, in the experiment with RXF-631 renal, in the experiment on DLD-1 colon, in the experiment with LXFL 529 NSCLC and in the experiment on HOP-18 NSCLC was above 10 µM each time.
Molecule `O=C(O)c1ccccc1NC(=S)c1ccccc1` returned a TGI in the experiment on MDA-N above 100 µM.
Same read-out and setting: under `CN=C1OC2(c3ccccc3)C3=C(OC(=NC)N2C)C(=O)OC3(c2ccccc2)N1C` (configuration not stated) stands above 100 µM.
Take `N#CNc1nc(N)c(-c2ccc(Cl)cc2)c(C(=O)Nc2nccs2)n1`: the TGI in the experiment on SNB-78 CNS, with DMS 273 small cell lung, in the experiment with DLD-1 colon, in the experiment with LXFL 529 NSCLC and in the experiment on HOP-18 NSCLC was above 100 µM throughout.
Regarding `Cc1cc(=O)c2c(O)cc3c(c2o1)CC=C(COC1OC(COC2OC(CO)C(O)C(O)C2O)C(O)C(O)C1O)CO3` (configuration not stated), the TGI in the experiment with SNB-78 CNS, in the experiment on DMS 273 small cell lung, in the experiment on DLD-1 colon and in the experiment on LXFL 529 NSCLC was above 100 µM throughout.
On to `O=C1C=C(O)C(=Cc2c(O)cc(O)cc2O)C(O)=C1`, for which the TGI in the experiment on SNB-78 CNS, in the experiment with DMS 273 small cell lung, in the experiment on RXF-631 renal, in the experiment with DLD-1 colon, in the experiment on LXFL 529 NSCLC and in the experiment on HOP-18 NSCLC was above 100 µM in each case.
